Source: US11254668B2, “Pyrazolo[1,5-A]pyrazin-4-yl and related derivatives” (Pfizer Inc., priority 2017, dated 2022)
pIC50: −log10 of the molar value.

Columns and labels:
Assay type in all cases: biochemical
[1] = target: JAK3 (Homo sapiens (Human), UniProt P52333); assay: JAK Caliper Enzyme Assay at 1 mM ATP, JAK3
Procedure, shortened: (§1)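 Recombinant human kinase domains phosphorylate a fluorescent synthetic peptide at 1 mM ATP, room temperature, with enzyme and time tuned for 20-30% conversion; EDTA-stopped. Product/substrate separated by microfluidic mobility shift; percent effect versus DMSO and positive controls fitted to IC50 (nM).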

[2] = target: TYK2 (Homo sapiens (Human), UniProt P29597); assay: JAK Caliper Enzyme Assay at 1 mM ATP, TYK2
Procedure, shortened: (§2)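 Read-out is Caliper LabChip mobility-shift separation of phosphorylated from unphosphorylated fluorescent peptide after EDTA termination. Each JAK kinase domain (human, recombinant) runs at 1 mM ATP at room temperature, adjusted for 20–30% turnover. Inhibition is normalized to DMSO and positive-control wells and plotted against concentration.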

[3] = target: JAK1 (Homo sapiens (Human), UniProt P23458); assay: JAK Caliper Enzyme Assay at 1 mM ATP, JAK1
Procedure, shortened: as §1

[4] = target: JAK2 (Homo sapiens (Human), UniProt O60674); assay: JAK Caliper Enzyme Assay at 1 mM ATP, JAK2
Procedure, shortened: as §2

JAK1, sequence (P23458 875-1153): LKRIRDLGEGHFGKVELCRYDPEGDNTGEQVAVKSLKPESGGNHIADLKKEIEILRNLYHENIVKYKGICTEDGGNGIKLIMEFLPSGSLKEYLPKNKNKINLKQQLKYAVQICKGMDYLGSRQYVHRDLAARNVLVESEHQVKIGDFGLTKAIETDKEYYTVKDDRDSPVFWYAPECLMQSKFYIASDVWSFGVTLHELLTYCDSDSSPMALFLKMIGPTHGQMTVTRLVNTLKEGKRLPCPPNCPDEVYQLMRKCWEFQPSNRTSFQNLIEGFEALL
JAK3, sequence (P52333 822-1111): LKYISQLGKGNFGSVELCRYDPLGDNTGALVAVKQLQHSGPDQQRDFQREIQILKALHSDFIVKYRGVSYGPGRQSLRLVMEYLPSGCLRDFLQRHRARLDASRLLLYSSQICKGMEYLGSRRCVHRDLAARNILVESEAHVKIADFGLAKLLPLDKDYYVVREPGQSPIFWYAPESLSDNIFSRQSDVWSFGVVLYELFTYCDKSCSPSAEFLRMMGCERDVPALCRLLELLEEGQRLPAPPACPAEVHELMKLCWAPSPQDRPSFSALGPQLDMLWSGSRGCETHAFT
JAK2, sequence (O60674 849-1124): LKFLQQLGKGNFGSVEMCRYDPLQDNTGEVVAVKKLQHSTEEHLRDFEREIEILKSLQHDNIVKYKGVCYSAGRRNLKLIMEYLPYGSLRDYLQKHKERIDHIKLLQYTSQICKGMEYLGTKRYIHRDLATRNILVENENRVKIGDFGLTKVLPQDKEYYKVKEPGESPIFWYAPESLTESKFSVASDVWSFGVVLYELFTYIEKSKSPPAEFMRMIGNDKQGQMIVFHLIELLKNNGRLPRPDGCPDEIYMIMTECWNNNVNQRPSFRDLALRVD
TYK2, sequence (P29597 897-1176): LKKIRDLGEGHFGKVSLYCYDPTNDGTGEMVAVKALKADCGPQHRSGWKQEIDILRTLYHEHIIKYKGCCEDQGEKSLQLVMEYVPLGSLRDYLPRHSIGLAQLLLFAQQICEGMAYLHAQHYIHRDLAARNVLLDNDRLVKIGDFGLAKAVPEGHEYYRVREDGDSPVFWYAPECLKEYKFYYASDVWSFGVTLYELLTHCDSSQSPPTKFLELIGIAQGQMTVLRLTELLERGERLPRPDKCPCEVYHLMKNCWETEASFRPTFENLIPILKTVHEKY

| SMILES | pIC50 [1] | pIC50 [2] | pIC50 [3] | pIC50 [4] |
| --- | --- | --- | --- | --- |
| CO[C@H]1C[C@@](CC#N)(n2ccc(-c3nc(-c4cc(N)[nH]n4)cc4ncccc34)n2)C1 [Example 52, (cis-1-{3-[7-(5-amino-1H-pyrazol-3-yl)-1,6-naphthyridin-5-yl]-1H-pyrazol-1-yl}-3-methoxycyclobutyl)acetonitrile] | < 5.00 | 7.72 | 6.42 | 6.63 |
| CO[C@H]1C[C@](CC#N)(n2ccc(-c3nc(-c4cc(N)[nH]n4)cc4ncccc34)n2)C1 [Example 53, (trans-1-{3-[7-(5-amino-1H-pyrazol-3-yl)-1,6-naphthyridin-5-yl]-1H-pyrazol-1-yl}-3-methoxycyclobutyl)acetonitrile] | < 5.00 | 7.59 | 6.18 | 6.40 |
| Cn1nccc1-c1cc2ncccc2c(-c2ccn(C3(CC#N)CN(CC(F)(F)F)C3)n2)n1 [Example 54, [3-{3-[7-(1-methyl-1H-pyrazol-5-yl)-1,6-naphthyridin-5-yl]-1H-pyrazol-1-yl}-1-(2,2,2-trifluoroethyl)azetidin-3-yl]acetonitrile] | < 5.00 | 6.67 | 5.64 | 5.68 |
| Cn1ccc(-c2cc3ncccc3c(-c3ccn(C4(CC#N)CN(CC(F)(F)F)C4)n3)n2)n1 [Example 55, [3-{3-[7-(1-methyl-1H-pyrazol-3-yl)-1,6-naphthyridin-5-yl]-1H-pyrazol-1-yl}-1-(2,2,2-trifluoroethyl)azetidin-3-yl]acetonitrile] | < 5.00 | 6.81 | 5.05 | 5.59 |
| CS(=O)(=O)N1CC(CC#N)(n2ccc(-c3nc(-c4ccn(C5COC5)n4)cc4ncccc34)n2)C1 [Example 56, [1-(methylsulfonyl)-3-(3-{7-[1-(oxetan-3-yl)-1H-pyrazol-3-yl]-1,6-naphthyridin-5-yl}-1H-pyrazol-1-yl)azetidin-3-yl]acetonitrile] | < 5.00 | 6.65 | < 5.00 | 5.83 |
| N#CCC1(n2ccc(-c3nc(-c4ccn(C5COC5)n4)cc4ncccc34)n2)CN(CC(F)(F)F)C1 [Example 57, [3-(3-{7-[1-(oxetan-3-yl)-1H-pyrazol-3-yl]-1,6-naphthyridin-5-yl}-1H-pyrazol-1-yl)-1-(2,2,2-trifluoroethyl)azetidin-3-yl]acetonitrile] | < 5.00 | 6.59 | < 5.00 | 5.63 |
| Cc1cc(-c2cc3ncccc3c(-c3ccn([C@]4(CC#N)C[C@@H](C#N)C4)n3)n2)nn1C [Example 58, trans-3-(cyanomethyl)-3-{3-[7-(1,5-dimethyl-1H-pyrazol-3-yl)-1,6-naphthyridin-5-yl]-1H-pyrazol-1-yl}cyclobutanecarbonitrile] | < 5.00 | 7.47 | 5.13 | 6.29 |
| Cc1cc(-c2cc3ncccc3c(-c3ccn([C@]4(CC#N)C[C@H](C#N)C4)n3)n2)nn1C [Example 59, cis-3-(cyanomethyl)-3-{3-[7-(1,5-dimethyl-1H-pyrazol-3-yl)-1,6-naphthyridin-5-yl]-1H-pyrazol-1-yl}cyclobutanecarbonitrile] | < 5.00 | 7.80 | 6.06 | 7.04 |
| Cn1nc(CO)cc1-c1cc2ncccc2c(-c2ccn([C@]3(CC#N)C[C@@H](C#N)C3)n2)n1 [Example 60, trans-3-(cyanomethyl)-3-(3-{7-[3-(hydroxymethyl)-1-methyl-1H-pyrazol-5-yl]-1,6-naphthyridin-5-yl}-1H-pyrazol-1-yl)cyclobutanecarbonitrile] | < 5.00 | 6.72 | 5.41 | 6.04 |
| Cn1nc(CO)cc1-c1cc2ncccc2c(-c2ccn([C@]3(CC#N)C[C@H](C#N)C3)n2)n1 [Example 61, cis-3-(cyanomethyl)-3-(3-{7-[3-(hydroxymethyl)-1-methyl-1H-pyrazol-5-yl]-1,6-naphthyridin-5-yl}-1H-pyrazol-1-yl)cyclobutanecarbonitrile] | < 5.00 | 7.41 | 6.28 | 6.91 |
| CCN1CC(CC#N)(n2ccc(-c3nc(-c4cc(N)n(C)n4)cc4ncccc34)n2)C1 [Example 64, (3-{3-[7-(5-amino-1-methyl-1H-pyrazol-3-yl)-1,6-naphthyridin-5-yl]-1H-pyrazol-1-yl}-1-ethylazetidin-3-yl)acetonitrile] | < 5.00 | 6.36 | < 5.00 | 5.23 |
| Cn1nc(-c2cc3ncccc3c(-c3ccn([C@]4(CC#N)C[C@](C)(C#N)C4)n3)n2)cc1N [Example 67, cis-3-{3-[7-(5-amino-1-methyl-1H-pyrazol-3-yl)-1,6-naphthyridin-5-yl]-1H-pyrazol-1-yl}-3-(cyanomethyl)-1-methylcyclobutanecarbonitrile] | < 5.00 | 7.41 | 5.66 | 6.61 |
| Cn1nc(-c2cc3ncccc3c(-c3ccn([C@]4(CC#N)C[C@@](C)(C#N)C4)n3)n2)cc1N [Example 68, trans-3-{3-[7-(5-amino-1-methyl-1H-pyrazol-3-yl)-1,6-naphthyridin-5-yl]-1H-pyrazol-1-yl}-3-(cyanomethyl)-1-methylcyclobutanecarbonitrile] | < 5.00 | 5.80 | < 5.00 | 5.36 |
| CNc1cc(-c2cc3ncccc3c(-c3ccn([C@]4(CC#N)C[C@H](C#N)C4)n3)n2)nn1C [Example 69, cis-3-(cyanomethyl)-3-(3-{7-[1-methyl-5-(methylamino)-1H-pyrazol-3-yl]-,6-naphthyridin-5-yl}-1H-pyrazol-1-yl)cyclobutanecarbonitrile] | < 5.00 | 6.80 | 5.47 | 6.25 |
| CNc1cc(-c2cc3ncccc3c(-c3ccn([C@]4(CC#N)C[C@@H](C#N)C4)n3)n2)nn1C [Example 70, trans-3-(cyanomethyl)-3-(3-{7-[1-methyl-5-(methylamino)-1H-pyrazol-3-yl]-1,6-naphthyridin-5-yl}-1H-pyrazol-1-yl)cyclobutanecarbonitrile] | < 5.00 | 6.18 | < 5.00 | 5.46 |
| Cn1nc(-c2cc3ncccc3c(-c3ccn([C@]4(CC#N)C[C@@H](C#N)C4)n3)n2)cc1CN [Example 71, trans-3-(3-{7-[5-(aminomethyl)-1-methyl-1H-pyrazol-3-yl]-1,6-naphthyridin-5-yl}-1H-pyrazol-1-yl)-3-(cyanomethyl)cyclobutanecarbonitrile] | 5.10 | 6.96 | 5.43 | 6.69 |
| N#CCC1(n2ccc(-c3nc(-c4cc5n(n4)CCNC5)cc4ncccc34)n2)CC(C#N)C1 (stereo not drawn) [Example 72, cis-3-(cyanomethyl)-3-{3-[7-(4,5,6,7-tetrahydropyrazolo[1,5-a]pyrazin-2-yl)-1,6-naphthyridin-5-yl]-1H-pyrazol-1-yl}cyclobutanecarbonitrile] | 5.29 | 7.55 | 6.17 | 7.32 |
| N#CC[C@]1(n2ccc(-c3nc(-c4cc5n(n4)CCNC5)cc4ncccc34)n2)C[C@H](C#N)C1 [Example 73, trans-3-(cyanomethyl)-3-{3-[7-(4,5,6,7-tetrahydropyrazolo[1,5-a]pyrazin-2-yl)-1,6-naphthyridin-5-yl]-1H-pyrazol-1-yl}cyclobutanecarbonitrile] | < 5.00 | 7.48 | 5.33 | 6.69 |
| N#CCC1(n2ccc(-c3nc(-c4cn[nH]c4)cc4ncccc34)n2)CN(CC(F)(F)F)C1 [Example 74, [3-{3-[7-(1H-pyrazol-4-yl)-1,6-naphthyridin-5-yl]-1H-pyrazol-1-yl}-1-(2,2,2-trifluoroethyl)azetidin-3-yl]acetonitrile] | 5.02 | 7.89 | 6.66 | 6.57 |
| CS(=O)(=O)N1CC(CC#N)(n2ccc(-c3nc(-c4cn[nH]c4)cc4ncccc34)n2)C1 [Example 75, [1-(methylsulfonyl)-3-{3-[7-(1H-pyrazol-4-yl)-1,6-naphthyridin-5-yl]-1H-pyrazol-1-yl}azetidin-3-yl]acetonitrile] | < 5.00 | 7.34 | 6.17 | 6.35 |
| N#CCC1(n2ccc(-c3nc(-c4cn[nH]c4)cc4ncccc34)n2)CC(C#N)C1 (stereo not drawn) [Example 76, cis-3-(cyanomethyl)-3-{3-[7-(1H-pyrazol-4-yl)-1,6-naphthyridin-5-yl]-1H-pyrazol-1-yl}cyclobutanecarbonitrile] | 5.81 | 8.15 | 7.46 | 7.48 |
| N#CC[C@]1(n2ccc(-c3nc(-c4cn[nH]c4)cc4ncccc34)n2)C[C@H](C#N)C1 [Example 77, trans-3-(cyanomethyl)-3-{3-[7-(1H-pyrazol-4-yl)-1,6-naphthyridin-5-yl]-1H-pyrazol-1-yl}cyclobutanecarbonitrile] | < 5.00 | 7.60 | 6.53 | 6.62 |
| N#CC[C@H]1C[C@](CC#N)(n2ccc(-c3nc(-c4cn[nH]c4)cc4ncccc34)n2)C1 [Example 79, 2,2′-(trans-1-{3-[7-(1H-pyrazol-4-yl)-1,6-naphthyridin-5-yl]-1H-pyrazol-1-yl}cyclobutane-1,3-diyl)diacetonitrile] | < 5.00 | 7.13 | 5.98 | 6.11 |
| CO[C@H]1C[C@@](CC#N)(n2ccc(-c3nc(-c4cn[nH]c4)cc4ncccc34)n2)C1 [Example 80, (cis-3-methoxy-1-{3-[7-(1H-pyrazol-4-yl)-1,6-naphthyridin-5-yl]-1H-pyrazol-1-yl}cyclobutyl)acetonitrile] | < 5.00 | 7.33 | 5.97 | 6.03 |
